What all share (assay type): cell-based, human
The test system of test [1] is MV4-11 (MLL-AF4) cells. Briefly: Combination proliferation assay with Compound A2 (CellTiter-Glo, Chou-Talalay CI). The note with it: for Combination effect with Compound A2 / Combination effect with Compound A2 (Table 5): MV4-11; for Combination effect with Compound A2: 7 Day Cotreatment (Example 1); for Combination effect with Compound A2 (Table 4): MV4-11 (MLL-AF4); for Combination effect with Compound A2 (Table 4) / Combination effect with Compound A2 (Table 5): 7 Day Cotreatment Model; for Combination effect with Compound A2 (Table 2): MV4-11 MLL-AF4. The method, then:
(§1) The acute myelogenous leukemia cell lines MV4-11 (MLL-AF4) and MOLM-13 (MLL-AF9) were obtained from American Type Culture Collection (ATCC; Rockville, Md.) and Deutsche Sammlung von Mikroorganismen and Zellkulturen (DSMZ; Braunschweig, Germany) respectively.
(§2) Studies were performed using MLL-rearranged cell lines in vitro to evaluate the anti-proliferative effect of a combination of two agents together on cell growth. Initial proliferation studies were performed to determine the IC50 of a given compound in each cell line. The cell counts were measured by ATP quantitation using the Promega Cell Titer Glo kit and luminescence values corresponded to the amount of ATP in a given well.
(§3) Compounds were evaluated for synergy in the co-treatment phase by testing the compounds in a concentration range which was bracketed around their IC50 values. The compounds were plated to a 96 well plate in a matrix format (FIG. 3) which includes increasing concentrations of each drug in the combination in a constant ratio, in addition to the effect of each compound alone in the study. Cells were seeded and grown in the log-linear phase for 3 or 7 days in the co-treatment phase. Minimum inhibition (DMSO alone) controls were used in each plate to calculate fraction affected (Fa) of a test well. DMSO concentration was kept at 0.1% v/v.
(§4) The drug combination analysis was performed utilizing the Chou-Talalay method Synergy was determined using the software package Calcusyn by Biosoft. The combination index (CI) is a quantitative term used to describe the level of synergy or antagonism in a given test system. A combination index less than one indicates synergy, and a CI greater than one indicates antagonism. Further, strong synergism is achieved when the CI value falls below 0.3.
(§5) The HP-D300 digital dispenser (Tecan) was used to dispense compounds in a combinatorial matrix. […] Cell viability was measured via ATP content using CellTiter-Glo® (Promega).
(§6) Viability was determined using CellTiter-Glo® (Promega).
(§7) Proliferation studies were performed using MOLM-13, MV4-11 and SKM-1 cell lines in vitro to evaluate the cancer cell killing effect of a combination of two agents together on cell growth. Initial proliferation studies were performed to determine the IC50 values of a given compound in each cell line. The cell counts were measured by ATP quantitation using the Promega Cell Titer Glo kit and luminescence values correspond to the amount of ATP in a given well.
(§8) These studies were performed to evaluate both the combinatorial effect of compounds on cell killing and the durability of the effect by washing out one of the agents.
(§9) Compounds evaluated for synergy in the co-treatment phase were tested in a range which was bracketed around the IC50's. The compounds were plated to a 96 well plate in a matrix format which includes increasing concentrations of each drug in the combination in a constant ratio, in addition to the effect of each compound alone in the study. Cells were seeded and grown in the log-linear phase for 3 or 7 days in the cotreatment phase. Maximum and minimum inhibition (DMSO alone) controls were used in each plate to calculate fraction affected (Fa) of a test well. DMSO concentration was kept at 0.1% v/v. The drug combination analysis was performed utilizing the Chou-Talalay method. Synergy was determined using the software package Calcusyn by Biosoft. The combination index (CI) is the term used to describe the level of synergy or antagonism in a given test system. A combination index less than one indicates synergy, and a CI greater than one indicates antagonism.
The drug combination analysis was performed using the Chou-Talalay method. Graphs representing values of combination index (CI) versus Fractional effect (Fa) known as Fa-CI plots were generated and synergy was evaluated. Drug synergy was statistically defined by CI values less than 1, antagonism by CI>1 and additive effect by CI equal to 1.

The test system of test [2] is MOLM-13 cells. Briefly: Example 6 combination screen: 300 nM EPZ-5676 pre-treatment, second compound 72 h, ATPLite, IC50 shift. The note with it: 300 nM EPZ-5676 pre-treatment (4 + 3 days) vs DMSO, then 2nd compound 72 h, IC50 shift of 2nd compound. The method, then: (§10) Cells were then equilibrated in incubators for 24 hours before treatment with a second compound. Treated assay plates were incubated with a second compound for 72 hours. After this time, plates were developed for endpoint analysis using ATPLite to measure ATP content, which is used as an indicator of cell viability.
(§11) “N/D” means that IC50 of the second compound could not be determined for both conditions.
(In ATP-based viability assays light output follows the ATP content of the culture.)

Test [3] relates to MOLM-13 (MLL-AF9) cells. The test can be described thus: Combination proliferation assay with Compound A2 (CellTiter-Glo, Chou-Talalay CI). The note with it: for Combination effect with Compound A2: MOLM-13, 7 Day Cotreatment (Example 1); for Combination effect with Compound A2 (Table 4): MOLM-13 (MLL-AF9), 7 Day Cotreatment Model; for Combination effect with Compound A2 (Table 2): MOLM-13 MLL-AF9. How it is done:
as §1, §2, §3, §4, §5, §6
Cell viability was measured via ATP content using CellTiter-Glo® (Promega).
as §7, §8, §9
The drug combination analysis was performed using the Chou-Talalay method. Graphs representing values of combination index (CI) versus Fractional effect (Fa) known as Fa-CI plots were generated and synergy was evaluated.

Test [4] deals with SKM-1 cells. The test can be described thus: Example 6 combination screen: 300 nM EPZ-5676 pre-treatment, second compound 72 h, ATPLite, IC50 shift. The note with it: SKM-1 cells; 300 nM EPZ-5676 pre-treatment (4 + 3 days) vs DMSO, then 2nd compound 72 h; ATPLite; IC50 shift of 2nd compound. How it is done:
as §10, §11

For the compound `CC(C)(C)c1cc(NC(=O)Nc2ccc(-c3cn4c(n3)sc3cc(OCCN5CCOCC5)ccc34)cc2)no1` [Quizartinib], in test [1], the “Combination effect with Compound A2” value is recorded as “synergy”.

As for `N.N.[Cl][Pt][Cl]` [Cisplatin], in test [2], the “Summary of Combination Studies: MOLM-13” value is given as “Synergy (considered synergistic if the IC50 value of the second compound decreased by 2-fold or more when EPZ-5676 was added as compared to the DMSO control)”.

Regarding `CC1(C)CCC(c2ccc(Cl)cc2)=C(CN2CCN(c3ccc(C(=O)NS(=O)(=O)c4ccc(N[C@H](CCN5CCOCC5)CSc5ccccc5)c(S(=O)(=O)C(F)(F)F)c4)cc3)CC2)C1` [Navitoclax], the “Combination effect with Compound A2” value in test [3] and in test [1] was “synergy” each time.

As to `Cc1sc2c(c1C)C(c1ccc(Cl)cc1)=N[C@@H](CC(N)=O)c1nnc(C)n1-2` [CPI-203], the “Summary of Combination Studies: MOLM-13” value in test [2] is “Synergy (considered synergistic if the IC50 value of the second compound decreased by 2-fold or more when EPZ-5676 was added as compared to the DMSO control)”. For the same compound, in test [4], the “Summary of Combination Studies: SKM-1” value is “Synergy (considered synergistic if the IC50 value of the second compound decreased by 2-fold or more when EPZ-5676 was added as compared to the DMSO control)”.

In the case of `COc1ccc(C2=N[C@@H](c3ccc(Cl)cc3)[C@@H](c3ccc(Cl)cc3)N2C(=O)N2CCNC(=O)C2)c(OC(C)C)c1` [Nutlin-3], the “Summary of Combination Studies: MOLM-13” value in test [2] is given as “Synergy (considered synergistic if the IC50 value of the second compound decreased by 2-fold or more when EPZ-5676 was added as compared to the DMSO control)”.

Turning to `O=c1cc(N2CCOCC2)oc2c(-c3cccc4c3sc3ccccc34)cccc12` [NU 7441], in test [2], the “Summary of Combination Studies: MOLM-13” value is “Synergy (considered synergistic if the IC50 value of the second compound decreased by 2-fold or more when EPZ-5676 was added as compared to the DMSO control)”.

For `O=C1c2ccccc2-c2nc3nonc3nc21` [SMER 3], the “Summary of Combination Studies: MOLM-13” value in test [2] is “Synergy (considered synergistic if the IC50 value of the second compound decreased by 2-fold or more when EPZ-5676 was added as compared to the DMSO control)”.

As to `N[C@@H]1C[C@H]1c1ccccc1` (racemic) [Tranylcypromine], the “Combination effect with Compound A2 (Table 4)” value (“Combination effect … (Table 4)” for short) in test [3] is “Strong Synergy”; in test [1] it was “Synergy (Drug synergy was statistically defined by CI values less than 1)”. The “Combination effect with Compound A2” value in test [3] and in test [1] was “synergy” throughout.

Regarding `Nc1ccccc1NC(=O)c1ccc(CNC(=O)OCc2cccnc2)cc1` [MS-275], the “Summary of Combination Studies: MOLM-13” value in test [2] was “Synergy (considered synergistic if the IC50 value of the second compound decreased by 2-fold or more when EPZ-5676 was added as compared to the DMSO control)”.

Take `O=C1c2c(O)ccc(O)c2C(=O)c2c(NCCNCCO)ccc(NCCNCCO)c21` [Mitoxantrone]: the “Combination effect with Compound A2” value in test [1] is “Synergy (A combination index less than one indicates synergy)”.

Consider `CCCc1cc2c(N3CCN(C4=NCC(C)(C)S4)CC3)ncnc2s1` [Menin-MLL inhibitor MI-2], for which the “Combination effect … (Table 4)” value in test [3] and in test [1] was “Synergy (Drug synergy was statistically defined by CI values less than 1)” each time.

With `Cn1cncc1[C@@](N)(c1ccc(Cl)cc1)c1ccc2c(c1)c(-c1cccc(Cl)c1)cc(=O)n2C` [Tipifarnib], the “Combination effect with Compound A2 (Table 5)” value in test [1] is “Synergy (Drug synergy was statistically defined by CI values less than 1)”.

On to `c1ccc([C@@H]2C[C@H]2NC2CCNCC2)cc1` [GSK-LSD1], for which the “Summary of Combination Studies: MOLM-13” value in test [2] is “Synergy (considered synergistic if the IC50 value of the second compound decreased by 2-fold or more when EPZ-5676 was added as compared to the DMSO control)”.

In the case of `Cc1cccc(-c2[nH]c(C(C)(C)C)nc2-c2ccc3c(c2)OCO3)n1` [SB-505124], the “Summary of Combination Studies: MOLM-13” value in test [2] is recorded as “Synergy (considered synergistic if the IC50 value of the second compound decreased by 2-fold or more when EPZ-5676 was added as compared to the DMSO control)”.

In the case of `CC(=O)OC[C@H]1O[C@@H]([S-])[C@H](OC(C)=O)[C@@H](OC(C)=O)[C@@H]1OC(C)=O.CCP(CC)CC.[Au+]` [Auranofin], the “Summary of Combination Studies: MOLM-13” value in test [2] is given as “Synergy (considered synergistic if the IC50 value of the second compound decreased by 2-fold or more when EPZ-5676 was added as compared to the DMSO control)”.

Regarding `CC(=O)O/N=C1\C(=O)N(Cc2cc(Cl)ccc2Cl)c2ccc(Cl)cc21` [LDN 57444], the “Summary of Combination Studies: MOLM-13” value in test [2] was “Synergy (considered synergistic if the IC50 value of the second compound decreased by 2-fold or more when EPZ-5676 was added as compared to the DMSO control)”.

Regarding `Clc1ccc(C2(c3ccc(-c4cn[nH]c4)cc3)CCNCC2)cc1` [AT7867], in test [2], the “Summary of Combination Studies: MOLM-13” value was “Synergy (considered synergistic if the IC50 value of the second compound decreased by 2-fold or more when EPZ-5676 was added as compared to the DMSO control)”.

With `COc1cc2c(cc1-c1c(C)noc1C)ncc1[nH]c(=O)n([C@H](C)c3ccccn3)c12` [IBET-151], the “Combination effect with Compound A2 (Table 2)” value (“Combination effect … (Table 2)” for short) in test [3] is “Synergy (Drug synergy was statistically defined by CI values less than 1)”. Further, in test [1], the “Combination effect with Compound A2” value was “Synergy (A combination index less than one indicates synergy)” and the “Combination effect … (Table 2)” value is recorded as “Synergy (Drug synergy was statistically defined by CI values less than 1)”.

On to `Cc1cc(Cl)cc(OCCn2cc(F)cn2)c1-c1nc(N)nc2c1CN(C(=O)NCC(C)(F)F)C2` [BEP800], for which, in test [2], the “Summary of Combination Studies: MOLM-13” value was “Synergy (considered synergistic if the IC50 value of the second compound decreased by 2-fold or more when EPZ-5676 was added as compared to the DMSO control)”.

Regarding `Nc1ncn([C@H]2C[C@H](O)[C@@H](CO)O2)c(=O)n1` [Decitabine], the “Combination effect … (Table 2)” value in test [3] and in test [1] was “Synergy (Drug synergy was statistically defined by CI values less than 1)” each time.

In the case of `Cc1sc2c(c1C)C(c1ccc(Cl)cc1)=N[C@@H](CC(=O)OC(C)(C)C)c1nnc(C)n1-2` [JQ1], in test [3], the “Combination effect … (Table 4)” value was “Additive (additive effect by CI equal to 1)” and the “Combination effect … (Table 2)” value was “Additive (additive effect by CI equal to 1)”. In test [1], the “Combination effect … (Table 4)” value was “Additive (additive effect by CI equal to 1)” and the “Combination effect … (Table 2)” value was “Additive (additive effect by CI equal to 1)”.

As to `CC[C@@H]1C(=O)N(C)c2cnc(Nc3ccc(C(=O)N[C@H]4CC[C@H](N5CCN(CC6CC6)CC5)CC4)cc3OC)nc2N1C(C)C` [Volasertib], the “Combination effect with Compound A2 (Table 5)” value in test [1] is listed as “Antagonstic”.

Take `c1ccc2c(CCNc3ccc(Nc4ccncc4)cc3)c[nH]c2c1` [JNJ 26854165]: the “Summary of Combination Studies: MOLM-13” value in test [2] is on record as “Synergy (considered synergistic if the IC50 value of the second compound decreased by 2-fold or more when EPZ-5676 was added as compared to the DMSO control)”.

Source of the values: patent US20190083521A1, “COMBINATION THERAPY FOR TREATING CANCER” (Epizyme, Inc., priority 2014, published 2019).
